Data taken from patent EP2420510B1, “Nicotinoyl peptide derivatives and cosmetic composition comprising the same” (BIO-FD&C Co., Ltd., priority 2010, dated 2013).
Residues, ends and D or L forms follow the SMILES beside them.

What was measured:
[1] = test system: iNOS; assay: Anti-inflammatory activity test (iNOS activity inhibition test; nitric oxide by Griess reagent after LPS); format: cell-based, murine; conditions: Mus musculus; amount of nitric oxide produced relative to group treated with LPS only (=100); 100 µM pre-treatment 18 hours, then LPS 24 hours, Raw264.7 cells; read-out: Yields (%)
Experimental: Raw264.7 cells (murine macrophage cell line) were suspended in 10% fetal bovine serum-Dulbecco's modified Eagle's medium (FBS-DMEM) without […] (GIBCO) in […] and seed to a 24-well plate.
Then, […] of lipopolysaccharide (LPS, Sigma) was added and cultured for 24 hours. Afterwards, 100µℓ of the obtained supernatant was added to a 96-well plate and the same amount of Griess reagent (Sigma) was added, followed by light vortexing at room temperature for 10 minutes. The absorbance was measured at 570 nm.
The calibration curve was prepared using sodium nitrite as a standard, and the amount of nitric oxide produced in the culture solution was calculated. […]

[2] = test system: Human fibroblasts (primary cell line, CCD-986sk); conditions: 100 µM, 24 hours, CCD-986sk fibroblasts, PIP ELISA absorbance at 450 nm relative to purified water control (=100)
Experimental: Human fibroblasts (primary cell line, CCD-986sk) were seeded to a plate and cultured in Dulbecco's modified Eagle's medium (DMEM) supplemented with penicillin (100 IU/ml), streptomycin (100µg/ml) and 10% fetal bovine serum (FBS) at 37 °C with 5% CO2.
The cultured cells were divided to a 48-well plate in 5×10^4 cells/well and cultured for 24 hours. […] The amount of collagen generated in the culture solution was measured with procollagen type I C-peptide (PIP) (Takara, MK101) ELISA.
After 100 µℓ of antibody-PoD conjugate solution was added to each well, 20 µℓ of the culture solution diluted to 1/5 and standard solution were added and cultured at 37 °C for 3 hours. Then, each well was washed four times with 400 µℓ of PBS. 100 µℓ of color coupler was added and cultured at room temperature for 15 minutes. Then, 100 µℓ of IN sulfuric acid was added and the absorbance was measured at 450 nm with a ELISA reader.
Collagen generation activity = (Absorbance of peptide treated group)/(Absorbance of control) X 100 [formula]

[3] = Cytotoxicity test (MTT, cell growth effect); format: cell-based; conditions: human fibroblasts, MTT absorbance at 570 nm relative to purified water control (=100)
Experimental: (§1) 50 µl of 3-(4,5-dimethylthiazol-2-yl)-2,5-diphenyltetrazolium bromide (MTT, Sigma M5655, USA) solution (2.5 mg/mℓ) was added to the culture solution, followed by further culturing for 3 hours. Then, the culture solution was centrifuged to remove a supernatant, and 200 µl of dimethylsulfoxide (DMSO, Sigma D2650, USA) was added to each well and vortexed for 20 minutes to dissolve formazan crystals formed. 100 µl of the resulting solution was added to a 96-well plate and its absorbance was measured at 570 nm with enzyme-linked immunosorbent assay (ELISA).

[4] = test system: Human fibroblasts; assay: Cytotoxicity test (MTT, cell growth effect); format: cell-based; conditions: 100 µM, 24 hours, MTT absorbance at 570 nm relative to purified water control (=100)
Experimental: as §1

| Structure (SMILES) | activity at 100 µM [1] | Collagen Generation Activity (%) [2] | viability at 24 h, 100 µM [3] | Cell Growth Effect (%) [4] |
| --- | --- | --- | --- | --- |
| O=C(O)c1cccnc1 [Nicotinic acid] | 98.8% | 105.2% | 102% | – |
| CSCC[C@H](NC(=O)[C@H](Cc1ccccc1)NC(=O)CNC(=O)CNC(=O)[C@H](Cc1ccc(O)cc1)NC(=O)c1cccnc1)C(=O)O [Example 1, nicotinoyl-pentapeptide (tyrosyl-glycyl-glycyl-phenylalanyl-methionine (SEQ ID No:1))] | – | – | – | 102.1% |
| CC(C)C[C@H](NC(=O)[C@H](Cc1ccccc1)NC(=O)CNC(=O)CNC(=O)[C@H](Cc1ccc(O)cc1)NC(=O)c1cccnc1)C(=O)N[C@@H](CCCNC(=N)N)C(=O)N[C@@H](CCCCN)C(=O)N[C@@H](Cc1ccc(O)cc1)C(=O)N1CCC[C@H]1C(=O)O [Example 3, nicotinoyl-nonapeptide (tyrosyl-glycyl-glycyl-phenylalanyl-leucyl-arginyl-lysyl-tyrosyl-proline (SEQ ID No:3))] (HELM PEPTIDE1{[O=C(c1cccnc1)[*:2]].Y.G.G.F.L.R.K.Y.P}$$$$V2.0) | – | – | – | 99.1% |
| O=C(O)CNC(=O)[C@H](CS)NC(=O)CC[C@H](NC(=O)c1cccnc1)C(=O)O [Comparative Example 1, nicotinoyl-tripeptide (γ-glutamyl-cysteinyl-glycine (SEO ID No:13))] | – | – | – | 98.3% |
| NC(=O)c1cccnc1 [Nicotinamide] | 96.1% | 108.8% | 103% | – |
| CC(C)C[C@H](NC(=O)[C@H](Cc1ccccc1)NC(=O)CNC(=O)CNC(=O)[C@H](Cc1ccc(O)cc1)NC(=O)c1cccnc1)C(=O)N[C@@H](CCCNC(=N)N)C(=O)N[C@@H](CCCCN)C(=O)N[C@@H](Cc1ccc(O)cc1)C(=O)N1CCC[C@H]1C(=O)N[C@@H](CCCCN)C(=O)O [Example 4, nicotinoyl-decapeptide (tyrosyl-glycyl-glycyl-phenylalanyl-leucyl-arginyl-lysyl-tyrosyl-prolyl-lycine (SEQ ID No:4))] (HELM PEPTIDE1{[O=C(c1cccnc1)[*:2]].Y.G.G.F.L.R.K.Y.P.K}$$$$V2.0) | – | – | – | 98.8% |
| C[C@@H](O)[C@H](NC(=O)[C@H](CCCCN)NC(=O)c1cccnc1)C(=O)N[C@H](C(=O)N[C@@H](CCCCN)C(=O)N[C@@H](CO)C(=O)O)[C@@H](C)O [Comparative Example 2, nicotinoyl-pentapeptide (lysyl-threonyl-threonyl-lysyl-serine (SEQ ID No:12))] (HELM PEPTIDE1{[O=C(c1cccnc1)[*:2]].K.T.T.K.S}$$$$V2.0) | – | – | – | 97.6% |
| CC(C)C[C@H](NC(=O)[C@H](Cc1ccccc1)NC(=O)CNC(=O)CNC(=O)[C@H](Cc1ccc(O)cc1)NC(=O)c1cccnc1)C(=O)O [Example 2, nicotinoyl-pentapeptide (tyrosyl-glycyl-glycyl-Phenylalanyl-leucine (SEO ID No:2))] | – | – | – | 101.3% |
